This is an account of results in ChEMBL document CHEMBL5050844 (2019).

What all share (type): functional, T cell line
Test [1] is described as follows: Induction of anti-CD3/CD28 antibodies-stimulated human T cell activation at 1 uM assessed fold increase in CD25 expression measured by ELISA assay.
A short description of test [2]: Induction of anti-CD3 antibodies-stimulated human T cell activation at 8 uM assessed fold increase in CD25 expression measured by ELISA assay. Also: reference of the scale not given here. Background: ELISA stands for enzyme-linked immunosorbent assay.
Test [3] in a line: Induction of anti-CD3 antibodies-stimulated human T cell activation at 1 uM assessed fold increase in IL-2 secretion measured by ELISA assay. Also: reference of the scale not given here.
A short description of test [4]: Induction of anti-CD3 antibodies-stimulated human T cell activation at 1 uM assessed fold increase in CD25 expression measured by ELISA assay. Also: reference of the scale not given here.
Test [5] in a line: Induction of anti-CD3/CD28 antibodies-stimulated human T cell activation at 0.3 uM assessed fold increase in IL-2 secretion measured by ELISA assay.
A short description of test [6]: Induction of anti-CD3/CD28 antibodies-stimulated human T cell activation at 4 uM assessed fold increase in CD25 expression measured by ELISA assay.
Test [7] in a line: Induction of anti-CD3 antibodies-stimulated human T cell activation at 8 uM assessed fold increase in IL-2 secretion measured by ELISA assay. Also: reference of the scale not given here.
Test [8] in a line: Induction of anti-CD3/CD28 antibodies-stimulated human T cell activation at 1 uM assessed fold increase in IL-2 secretion measured by ELISA assay.
Test [9] is described as follows: Induction of anti-CD3/CD28 antibodies-stimulated human T cell activation at 0.3 uM assessed fold increase in CD25 expression measured by ELISA assay.
Test [10] can be described thus: Induction of anti-CD3/CD28 antibodies-stimulated human T cell activation at 4 uM assessed fold increase in IL-2 secretion measured by ELISA assay.

SMILES strings stand for the structures.

Take `C[C@H](Sc1nncn1C)c1cccc(NC(=O)c2cc(C(F)(F)F)cc(C3CC3)n2)c1`: the “fold change (FC)” value in test [1] is reported as 1.01; in test [2] it was “<=0.6”; in test [3], “<=0.05”; in test [4] it was “<=0.6”; in [5], “<=1”; in test [6], 1.31. The “fold change (FC)” value is given as “<=0.05” in [7], “<=1” in [8], 1.01 in [9] and 1.01 in test [10].

Consider `Cn1cnnc1C[C@]1(c2cccc(N3Cc4c(cccc4C(F)(F)F)C3=O)c2)C[C@H](CO)C1`, for which the “fold change (FC)” value in test [1] is 1.51; in [2] it was “>=1.001”; in [3], 0.101; in test [4] it was 0.801; in test [5], 1.01; in test [6], 1.51. For the same compound, the “fold change (FC)” value is “>=0.201” in test [7], 2.51 in test [8], 1.31 in test [9] and 5 in test [10].

Regarding `C[C@H](Sc1nncn1C)c1cccc(NC(=O)c2cccc(S(C)(=O)=O)n2)c1`, the “fold change (FC)” value in test [1] was 1.01; in [2], “<=0.6”; in test [3] it was “<=0.05”; in test [4] it was “<=0.6”; in test [5], “<=1”; in test [6], 1.01. In addition, the “fold change (FC)” value in [7] is recorded as “<=0.05”; in test [8], 1.01; in test [9] it was 1.01; in test [10], 1.01.

For `C[C@H](Cc1nnc[nH]1)c1cccc(N2Cc3c(cccc3C(F)(F)F)C2=O)c1`, the “fold change (FC)” value in test [1] is recorded as 1.31; in [2], “<=0.6”; in [3] it was “<=0.05”; in test [4], “<=0.6”; in [5] it was “<=1”; in [6], 1.31. Also, the “fold change (FC)” value in test [7] is “<=0.05”; in test [8], “<=1”; in test [9] it was 1.01; in [10] it was 1.01.

As to `C[C@H](Sc1nncn1C)c1cccc(NC(=O)c2cc3cc(OCc4ccn[nH]4)ccc3cn2)c1`, the “fold change (FC)” value in [1] is “<=1”; in [2], “<=0.6”; in test [3], 0.051; in test [4], “<=0.6”; in test [5] it was 1.01; in test [6], 1.01. In addition, the “fold change (FC)” value in test [7] is 0.101; in [8] it was 1.01; in test [9], “<=1”; in test [10], 2.51.

For the compound `C[C@H](Sc1nncn1C)c1cc(F)cc(N2Cc3c(cccc3C(F)(F)F)C2=O)c1`, the “fold change (FC)” value in [1] is 1.01; in [2], 0.801; in [3], “<=0.05”; in test [4] it was “<=0.6”; in test [5] it was “<=1”; in test [6], 1.01. Further, the “fold change (FC)” value in [7] is “<=0.05”; in [8] it was 1.01; in test [9], 1.01; in test [10], “<=1”.

`CN1CCN(c2cc3c(c(C(F)(F)F)c2)CN(c2cccc([C@@](C)(F)C(F)(F)c4nncn4C)c2)C3=O)CC1`: the “fold change (FC)” value is 1.01 in [1]; “>=1.001” in [2]; 0.051 in [3]; 0.601 in [4]; 1.01 in [5]; 1.01 in test [6]. In addition, the “fold change (FC)” value in test [7] is listed as 0.151; in test [8] it was 1.01; in [9], 1.01; in [10], 2.51.

For `C[C@H](Sc1nncn1C)c1cccc(NC(=O)c2ccc(Cl)c(C(F)(F)F)n2)c1`, the “fold change (FC)” value is 1.01 in [1]; “>=1.001” in test [2]; “<=0.05” in test [3]; 0.801 in [4]; “<=1” in test [5]; 1.01 in test [6]. For the same compound, the “fold change (FC)” value was “<=0.05” in test [7], “<=1” in test [8], 1.01 in test [9] and 1.01 in test [10].

`Cc1conc1CC(C)c1cccc(N2Cc3c(cccc3C(F)(F)F)C2=O)c1` (stereo not given): the “fold change (FC)” value is 1.01 in test [1]; 0.801 in test [2]; “<=0.05” in test [3]; 0.601 in [4]; 1.01 in [5]; 1.01 in [6]. In addition, the “fold change (FC)” value came to 0.051 in test [7], 1.01 in [8], 1.01 in test [9] and 1.01 in [10].

Take `C[C@@H](Cc1nncn1C)c1cccc(NC(=O)c2cc(C3CC3)cc(C(F)(F)F)n2)c1`: the “fold change (FC)” value was determined as 1.01 in test [1]; 0.601 in [2]; 0.051 in test [3]; 0.601 in [4]; 1.01 in test [5]; 1.01 in test [6]. Moreover, the “fold change (FC)” value in test [7] was determined as 0.101; in test [8], 1.01; in test [9], 1.01; in test [10] it was 1.01.

For the compound `C[C@H](Cc1nncn1C)c1cccc(NC(=O)c2cc(C(C)(C)O)c(Cl)cn2)c1`, the “fold change (FC)” value is 1.31 in test [1]; “<=0.6” in [2]; 0.051 in test [3]; “<=0.6” in test [4]; 2.51 in [5]; “>=1.76” in test [6]. Further, the “fold change (FC)” value in test [7] was found to be 0.101; in test [8] it was 1.01; in [9], 1.01; in [10] it was 5.

With `C[C@H](Cc1nncn1C)c1cc(NCCO)nc(N2Cc3c(cccc3C(F)(F)F)C2=O)c1`, the “fold change (FC)” value in [1] was 1.01; in [2], “>=1.001”; in test [3], 0.051; in test [4], 0.601; in [5], 1.01; in test [6] it was 1.01. Further, the “fold change (FC)” value in [7] was 0.151; in test [8] it was 1.01; in test [9], 1.01; in test [10] it was 2.51.

As for `C[C@H](Sc1nncn1C)c1cccc(NC(=O)c2cc(Cl)cc(C(F)(F)F)n2)c1`, the “fold change (FC)” value in test [1] was 1.01; in test [2], 0.801; in test [3], “<=0.05”; in test [4], 0.601; in [5], 1.01; in test [6], 1.01. Besides, the “fold change (FC)” value in test [7] came to 0.051; in test [8] it was 1.01; in [9], 1.01; in test [10], 1.01.

For `Cc1nc(C(=O)Nc2cccc([C@H](C)Sc3nncn3C)c2)ccc1Cl`, the “fold change (FC)” value was 1.01 in test [1]; 0.801 in [2]; “<=0.05” in [3]; “<=0.6” in [4]; 2.51 in test [5]; 1.01 in test [6]. The “fold change (FC)” value in [7] is listed as 0.051; in test [8], 5; in test [9] it was “<=1”; in [10], “>=7.5”.

For `C[C@H](Sc1nncn1C)c1cccc(NC(=O)c2cc(C(C)(C)O)c(Cl)cn2)c1`, the “fold change (FC)” value in test [1] was 1.01; in test [2] it was 0.601; in [3] it was “<=0.05”; in test [4] it was “<=0.6”; in test [5] it was 1.01; in [6], 1.01. Besides, the “fold change (FC)” value in test [7] is given as “<=0.05”; in test [8], 1.01; in [9], 1.01; in [10], 1.01.

Turning to `C[C@H](Sc1nncn1C)c1cccc(NC(=O)c2cc3cc(OCC(=O)NCCN)ccc3cn2)c1.Cl`, the “fold change (FC)” value in [1] was “<=1”; in test [2], 0.601; in test [3], “<=0.05”; in test [4] it was 0.601; in test [5], “<=1”; in [6], 1.01. Also, the “fold change (FC)” value in test [7] is “<=0.05”; in test [8], “<=1”; in test [9] it was “<=1”; in test [10], 1.01.

As for `C[C@H](Cc1nncn1C)c1cccc(NC(=O)c2cccc(S(C)(=O)=O)n2)c1`, the “fold change (FC)” value in [1] is “>=1.76”; in test [2] it was “<=0.6”; in test [3] it was 0.051; in [4], “<=0.6”; in test [5] it was 1.01; in [6], “>=1.76”. Besides, the “fold change (FC)” value in [7] is 0.051; in [8], 1.01; in test [9], 1.01; in [10], 2.51.
